Series [1] has as its system multi-resistant K1 Plasmodium falciparum strain. As to the kind of experiment: in vitro antiplasmodial activity, K1 strain (Table 1). The format is cell-based.
The nature of series [2]: cytotoxicity toward the human HepG2 cell line (CC50). As to conditions: HepG2 cells.
Series [3] concerns human HepG2 cell line.
In series [4] the test system is multi-resistant W2 or K1 Plasmodium falciparum strains. Put plainly: in vitro antiplasmodial activity, 2-trichloromethylquinazoline series (Table 2). The format is cell-based. The note with it: for IC50: Plasmodium falciparum, read-out: IC50 P. falc.
In series [5] the test system is human HepG2 cell line. The arrangement: method as in PMID 17981462, PMID 19482476, PMID 19926173, PMID 21741131, PMID 21852132. The note with it: previously synthesized series (Table 2, entries 1-4); cited from earlier work.
The subject of series [6] is multi-resistant W2 or K1 Plasmodium falciparum strains. The arrangement: method as in PMID 17981462, PMID 19482476, PMID 19926173, PMID 21741131, PMID 21852132. As to conditions: previously synthesized series (Table 2, entries 1-4); W2 or K1 strain; read-out: IC50 P. falc.; cited from earlier work.
The nature of the next series: in vitro. As to conditions: human.
The mark [7] stands for this setting: Plasmodium falciparum, P. falciparum K1 strain, highest tested concentration 10 µM, read-out: IC50 P fK1.
Setting [8] is: P. falciparum K1 strain, highest tested concentration 10 µM, read-out: IC50 P fK1.

We go through 24 molecules from paper PMC6269066, “A New Synthetic Route to Original Sulfonamide Derivatives in 2-Trichloromethylquinazoline Series: A Structure-Activity Relationship Study of Antiplasmodial Activity” (Molecules, 2012).

Like-named read-outs stand apart in the source and are kept apart here.

As usually defined, the IC50 is the concentration that gives 50% inhibition. For orientation: melting point means the temperature of the solid-liquid transition.

The molecule `O=S(=O)(Nc1nc(C(Cl)(Cl)Cl)nc2ccccc12)c1ccccc1` [8a, N-(2-Trichloromethylquinazolin-4-yl)benzenesulfonamide] gave a melting point of 200 °C. Moreover, the 50% inhibitory concentration (IC50) in series [1] (setting [7]) was more than 10 µM. Moreover, the CC50 in series [2] was 82 µM.

`Cc1ccc(S(=O)(=O)Nc2nc(C(Cl)(Cl)Cl)nc3ccccc23)cc1` [8b, 4-Methyl-N-(2-trichloromethylquinazolin-4-yl)benzenesulfonamide] registered a melting point of more than 260 °C. Besides, the concentration for half-maximal inhibition (IC50) in series [1] (setting [7]) is more than 10 µM. The CC50 in series [2] amounted to 68.7 µM.

In turn, `COc1ccc(S(=O)(=O)Nc2nc(C(Cl)(Cl)Cl)nc3ccccc23)cc1` [8c, 4-Methoxy-N-(2-trichloromethylquinazolin-4-yl)benzenesulfonamide] registered a melting point of 196 °C. Besides, the IC50 in series [1] (setting [7]) was more than 10 µM. This molecule showed a CC50 in series [2] of 102 µM.

In turn, `N#Cc1ccc(S(=O)(=O)Nc2nc(C(Cl)(Cl)Cl)nc3ccccc23)cc1` [8d, 4-Cyano-N-(2-trichloromethylquinazolin-4-yl)benzenesulfonamide] registered a melting point of 204 °C. Further, the half-inhibitory concentration (IC50) in series [1] (setting [7]) was more than 10 µM. The molecule further had a CC50 in series [2] of 73.8 µM.

In turn, `O=S(=O)(Nc1nc(C(Cl)(Cl)Cl)nc2ccccc12)c1ccc(Cl)cc1` [8e, 4-Chloro-N-(2-trichloromethylquinazolin-4-yl)benzenesulfonamide] returned a melting point of more than 260 °C. The IC50 in series [1] (setting [7]) was more than 10 µM. This molecule also displayed a CC50 in series [2] of 71.1 µM.

Consider `O=S(=O)(Nc1nc(C(Cl)(Cl)Cl)nc2ccccc12)c1ccc(Br)cc1` [8f, 4-Bromo-N-(2-trichloromethylquinazolin-4-yl)benzenesulfonamide], for which the melting point was more than 260 °C. The half-inhibitory concentration (IC50) in series [1] (setting [7]) is more than 10 µM. For the same molecule, the CC50 in series [2] worked out at 57.4 µM.

The molecule `O=S(=O)(Nc1nc(C(Cl)(Cl)Cl)nc2ccccc12)c1ccc(F)cc1` [8g, 4-Fluoro-N-(2-trichloromethylquinazolin-4-yl)benzenesulfonamide] returned a melting point of more than 260 °C. Further, in series [1] (setting [7]), the half-maximal inhibitory concentration (IC50) is more than 10 µM. In addition, in series [2], the CC50 was 69.5 µM.

Take `O=S(=O)(Nc1nc(C(Cl)(Cl)Cl)nc2ccccc12)c1cccc(F)c1` [8h, 3-Fluoro-N-(2-trichloromethylquinazolin-4-yl)benzenesulfonamide]: the melting point turned out to be 194 °C. The IC50 in series [1] (setting [7]) was more than 10 µM. Further, the CC50 in series [2] came out at 106 µM.

In turn, `O=S(=O)(Nc1nc(C(Cl)(Cl)Cl)nc2ccccc12)c1ccccc1F` [8i, 2-Fluoro-N-(2-trichloromethylquinazolin-4-yl)benzenesulfonamide] displayed a melting point of 188 °C. The IC50 in series [1] (setting [7]) was more than 10 µM. Moreover, in series [2], the CC50 came out at 136 µM.

Molecule `O=[N+]([O-])c1ccc(S(=O)(=O)Nc2nc(C(Cl)(Cl)Cl)nc3ccccc23)cc1` [8j, 4-Nitro-N-(2-trichloromethylquinazolin-4-yl)benzenesulfonamide] returned a melting point of 250 °C. The IC50 in series [1] (setting [7]) was more than 10 µM. In addition, in series [2], the CC50 came to 88.3 µM.

`O=[N+]([O-])c1cccc(S(=O)(=O)Nc2nc(C(Cl)(Cl)Cl)nc3ccccc23)c1` [8k, 3-Nitro-N-(2-trichloromethylquinazolin-4-yl)benzenesulfonamide]: the melting point came out at 204 °C. Besides, the 50% inhibitory concentration (IC50) in series [1] (setting [7]) is more than 10 µM. The molecule also showed a CC50 in series [2] of 120 µM.

In turn, `O=[N+]([O-])c1ccccc1S(=O)(=O)Nc1nc(C(Cl)(Cl)Cl)nc2ccccc12` [8l, 2-Nitro-N-(2-trichloromethylquinazolin-4-yl)benzenesulfonamide] displayed a melting point of more than 260 °C. The IC50 in series [1] (setting [7]) was more than 10 µM. In series [2], this molecule registered a CC50 of 126 µM.

Molecule `O=S(=O)(Nc1nc(C(Cl)(Cl)Cl)nc2ccccc12)c1ccc(C(F)(F)F)cc1` [8m, N-(2-trichloromethylquinazolin-4-yl)-4-(trifluoromethyl)benzenesulfonamide] came in with a melting point of 166 °C. Also, the IC50 in series [1] (setting [7]) is more than 10 µM. In series [2], this molecule displayed a CC50 of 49 µM.

`O=S(=O)(Nc1nc(C(Cl)(Cl)Cl)nc2ccccc12)c1cccc(C(F)(F)F)c1` [8n, N-(2-trichloromethylquinazolin-4-yl)-3-(trifluoromethyl)benzenesulfonamide] yielded a melting point of 255 °C. In addition, the IC50 in series [1] (setting [7]) was more than 10 µM. In addition, the CC50 in series [2] was 75.1 µM.

For the molecule `O=S(=O)(Nc1nc(C(Cl)(Cl)Cl)nc2ccccc12)c1ccccc1C(F)(F)F` [8o, N-(2-trichloromethylquinazolin-4-yl)-2-(trifluoromethyl)benzenesulfonamide], the melting point was found to be 205 °C. In addition, the IC50 in series [1] (setting [7]) is more than 10 µM. Moreover, in series [2], the CC50 came out at 73.8 µM.

In turn, `O=S(=O)(Nc1nc(C(Cl)(Cl)Cl)nc2ccccc12)c1ccc(-c2ccccc2)cc1` [8p, N-(2-trichloromethylquinazolin-4-yl)biphenyl-4-sulfonamide] returned a melting point of 210 °C. In addition, the IC50 in series [1] (setting [7]) is more than 10 µM. Moreover, the CC50 in series [2] came to 38.2 µM.

Consider `O=S(=O)(Nc1nc(C(Cl)(Cl)Cl)nc2ccccc12)c1ccc2ccccc2c1` [8q, N-(2-trichloromethylquinazolin-4-yl)naphtalene-2-sulfonamide], for which the IC50 in series [1] (setting [8]) was more than 10 µM. The CC50 in the series with human HepG2 cell line [3] amounted to 48.8 µM.

In the case of `O=S(=O)(Nc1nc(C(Cl)(Cl)Cl)nc2ccccc12)c1cccc2ccccc12` [8r, N-(2-trichloromethylquinazolin-4-yl)naphtalene-1-sulfonamide], the 50% inhibitory concentration (IC50) in series [1] (setting [8]) is more than 10 µM. For the same molecule, the CC50 in the series with human HepG2 cell line [3] worked out at 47.8 µM.

Consider `O=S(=O)(Nc1nc(C(Cl)(Cl)Cl)nc2ccccc12)c1cccs1` [8s, N-(2-trichloromethylquinazolin-4-yl)thiophene-2-sulfonamide], for which the melting point was found to be 191 °C. For the same molecule, the IC50 in series [1] (setting [7]) is more than 10 µM. In series [2], this molecule gave a CC50 of 121 µM.

As for `CS(=O)(=O)Nc1nc(C(Cl)(Cl)Cl)nc2ccccc12` [8t, N-(2-trichloromethylquinazolin-4-yl)methanesulfonamide], the melting point was determined as 186 °C. Also, the IC50 in series [1] (setting [7]) is more than 10 µM. In series [2], this molecule returned a CC50 of 241 µM.

On to `Fc1ccc(-c2nc(C(Cl)(Cl)Cl)nc3ccccc23)cc1` [C00001], for which the “SI (selectivity index)” value in series [4] (SI = CC50/IC50, previously synthesized series (Table 2, entries 1-4)) is recorded as more than 50. The CC50 with human HepG2 cell line [5] was more than 125 µM. For the same molecule, the IC50 in series [6] was 2.5 µM.

Turning to `CCN(CC)CCCC(C)Nc1ccnc2cc(Cl)ccc12` (stereo not shown) [Chloroquine, reference compound], the IC50 in series [1] (Plasmodium falciparum, K1, read-out: IC50 P fK1) is 0.6 µM; in series [4] it was 0.6 µM.

Consider `COc1cccc2c1C(=O)c1c(O)c3c(c(O)c1C2=O)C[C@@](O)(C(=O)CO)C[C@@H]3O[C@H]1C[C@H](N)[C@H](O)[C@H](C)O1` [Doxorubicine], for which the CC50 in “in vitro” worked out at 0.2 µM.

As to `C[C@H]1c2cccc(O)c2C(=O)C2=C(O)[C@]3(O)C(=O)C(C(N)=O)=C(O)[C@@H](N(C)C)[C@@H]3[C@@H](O)[C@@H]21` [Doxycycline, reference compound], the half-maximal inhibitory concentration (IC50) in series [1] (setting [7]) is 6 µM; in series [4] (Table 2, sulfonamide series and reference drugs) it was 6 µM. The molecule also came in with a CC50 in series [2] of 20 µM.
